Experimental data as given in the NIST ThermoML archive (doi:10.1021/je020067x).

Experiments:
[1] = xn = mol fraction of the nth substance listed; settings: 303.15 K, 101.33 kPa, Liquid; for viscosity: Capillary tube (Ostwald / Ubbelohde) method; for mass density: Vibrating tube method
[2] = 303.15 K, 101.33 kPa, Liquid; for viscosity: Capillary tube (Ostwald / Ubbelohde) method; for mass density: Vibrating tube method

ClC(Cl)(Cl)Cl [tetrachloromethane] + ClC(Cl)Cl
[1]
Settings	mass density [kg/m3]	viscosity [mPa·s]
x1 = 0.0591	1477.2	0.5216
x1 = 0.075	1479	0.5248
x1 = 0.1297	1485.1	0.5343
x1 = 0.2236	1495.3	0.5538
x1 = 0.2777	1501.2	0.5658
x1 = 0.3416	1508.1	0.5811
x1 = 0.434	1517.9	0.6041
x1 = 0.4886	1523.6	0.6201
x1 = 0.5736	1532.5	0.6486
x1 = 0.6646	1541.8	0.6807
x1 = 0.7747	1552.9	0.7256
x1 = 0.8186	1557.3	0.7458
x1 = 0.8904	1564.4	0.7804
x1 = 0.9305	1568.3	0.8017

ClC(Cl)Cl [trichloromethane]
[2]
Settings	mass density [kg/m3]	viscosity [mPa·s]
–	1470.5	0.5118

ClC(Cl)(Cl)Cl [tetrachloromethane] + ClCCl
[1]
Settings	mass density [kg/m3]	viscosity [mPa·s]
x1 = 0.0375	1321.5	0.4008
x1 = 0.0622	1330.4	0.4061
x1 = 0.0791	1336.4	0.4097
x1 = 0.0889	1339.9	0.412
x1 = 0.1254	1352.4	0.421
x1 = 0.2047	1378.4	0.441
x1 = 0.2305	1386.5	0.4479
x1 = 0.297	1406.7	0.4669
x1 = 0.3695	1427.7	0.4897
x1 = 0.4985	1462.5	0.5369
x1 = 0.4986	1462.5	0.5374
x1 = 0.4997	1462.8	0.5375
x1 = 0.5631	1478.9	0.564
x1 = 0.609	1490.1	0.5853
x1 = 0.6845	1508	0.6223
x1 = 0.8006	1533.9	0.6894
x1 = 0.8032	1534.5	0.6915
x1 = 0.8652	1547.7	0.7331
x1 = 0.9279	1560.7	0.7792
x1 = 0.9677	1568.6	0.8116

ClCCl [dichloromethane] + ClC(Cl)Cl
[1]
Settings	mass density [kg/m3]	viscosity [mPa·s]
x1 = 0.0633	1462.3	0.504
x1 = 0.1191	1454.8	0.4976
x1 = 0.1924	1444.7	0.4892
x1 = 0.3101	1427.8	0.4741
x1 = 0.3607	1420.3	0.4686
x1 = 0.4299	1409.7	0.4602
x1 = 0.5221	1395.1	0.4501
x1 = 0.6464	1374.3	0.4352
x1 = 0.6833	1367.8	0.4301
x1 = 0.74	1357.8	0.4236
x1 = 0.7979	1347.1	0.4163
x1 = 0.8681	1333.9	0.4083
x1 = 0.9034	1327	0.404
x1 = 0.9358	1320.6	0.4005

ClCCl [dichloromethane]
[2]
Settings	mass density [kg/m3]	viscosity [mPa·s]
–	1307.6	0.3929

ClC(Cl)(Cl)Cl [tetrachloromethane]
[2]
Settings	mass density [kg/m3]	viscosity [mPa·s]
–	1575	0.8403
